Reference: patent US20090318565A1, “Novel Compositions for the Enhancement of the Anti-oxidant Potential of Hydrogenated Curcuminoids or Combinations Thereof” (priority 2008, published 2009)
In brackets after ≈: the same amount, converted by molar mass.

Key:
[1] = test system: Swiss 3T3 mouse fibroblast cells; test: ROS scavenging assay (DCFH-DA dye, oxidation initiated by FeSO4); assay type: cell-based; conditions: for IC50: Mus musculus, Swiss-3T3, DCFH-DA, FeSO4, 1 hr at 37° C., fluorescence 485/520 nm, called SC50, read-out: % Inhibition (IC50 μg/ml) ROS scavenging in Swiss 3T3 fibroblast cell line
Protocol: The DPPH free radical scavenging activity is studied based on the stable free radical 1,1-diphenyl-2-picryl hydrazyl radical (DPPH) which, in presence of an antioxidant in organic/aqueous organic media is bleached and the decrease of absorbance of DPPH is measured spectrophotometrically at 516 nm. The assay mixture containing DPPH methanolic solution & methanolic solutions of various concentrations of the antioxidant is incubated at 37 degree C. for 30 minutes. The reduction in absorbance is measured spectrophotometrically at 516 nm. The free radical scavenging activity is expressed as SC50, the concentration of the sample required for 50% of the free radical to be scavenged. The ROS scavenging assay is based on a cell permeable, non-fluorescent dye, de-esterified DCFH-DA (dichloro fluorescein diacetate) being converted to dichlorofluorescein upon oxidation by the reactive oxygen species. […] Swiss 3T3 mouse fibroblast cells are cultured in DMEM medium with 10% FBS. 1×10^5 cells per well are plated into a 96 well black plate. After treatment with varying concentrations of the samples, the cells are exposed to DCFH-DA dye and oxidation initiated by FeSO4. […] The fluorescence intensity is directly proportional to the ROS scavenging activity of the samples. The activity is expressed as SC50 which is the concentration required for 50% scavenging of ROS.

[2] = DPPH free radical scavenging assay; assay type: biochemical; conditions: methanolic solution, 37 degree C. for 30 minutes, absorbance at 516 nm; called SC50
Protocol: The DPPH free radical scavenging activity is studied based on the stable free radical 1,1-diphenyl-2-picryl hydrazyl radical (DPPH) which, in presence of an antioxidant in organic/aqueous organic media is bleached and the decrease of absorbance of DPPH is measured spectrophotometrically at 516 nm. The assay mixture containing DPPH methanolic solution & methanolic solutions of various concentrations of the antioxidant is incubated at 37 degree C. for 30 minutes. The reduction in absorbance is measured spectrophotometrically at 516 nm. The free radical scavenging activity is expressed as SC50, the concentration of the sample required for 50% of the free radical to be scavenged. The ROS scavenging assay is based on a cell permeable, non-fluorescent dye, de-esterified DCFH-DA (dichloro fluorescein diacetate) being converted to dichlorofluorescein upon oxidation by the reactive oxygen species. The scavenging activity of sample is indicated by the decrease in fluorescence (wavelength 485/520 nm). Swiss 3T3 mouse fibroblast cells are cultured in DMEM medium with 10% FBS. […] After incubation for 1 hr at 37° C., the fluorescence reading is taken at wavelength 485/520 nm (Fluostar optima microplate reader). The fluorescence intensity is directly proportional to the ROS scavenging activity of the samples. The activity is expressed as SC50 which is the concentration required for 50% scavenging of ROS.

| SMILES | pro-oxidant properties of hydrogenated derivative against bisdemethoxycurcumin ([1]; upon hydrogenation) | IC50 [1] | anti-oxidant activity of hydrogenated derivative against curcumin ([1]; upon hydrogenation) | SC50 [2] | enhancement of anti-oxidant properties upon hydrogenation (ROS scavenging activity) ([1]; hydrogenated derivative against demethoxycurcumin) |
| --- | --- | --- | --- | --- | --- |
| O=C(CCc1ccc(O)cc1)CC(=O)CCc1ccc(O)cc1 [STR#1, 1,7-Bis(4-hydroxyphenyl)-3,5-heptanedione] | enhanced |  |  |  |  |
| COc1cc(CCC(=O)CC(=O)CCc2ccc(O)c(OC)c2)ccc1O [STR#II, 1,7-Bis(4-hydroxy-3-methoxyphenyl)-3,5-heptanedione] |  | 1.35 µg/mL (≈ 3.62 µM) | enhanced |  |  |
| COc1cc(CCC(=O)CC(=O)CCc2ccc(O)cc2)ccc1O [STR#V, 1-(4-hydroxy-3-methoxyphenyl)-7-(4-hydroxyphenyl)-3,5-heptanedione] |  | 4.5 µg/mL (≈ 13.1 µM) |  | 3.0 µg/mL | about 10 fold |
